Source: patent US20060069110A1, “Substituted heterocyclic compounds and methods of use” (priority 2004, published 2006)

Test system: THP1 cells (LPS induced TNF release)
Test: Lipopolysaccharide-Activated THP1 Cell TNF Production Assay
Assay type: cell-based
Details: Homo sapiens, THP-1; THP1 cells, bacterial LPS, secreted TNF-α after 3 h at 37° C.; read-out: IC50 values in the THP1 cell assay (LPS induced TNF release)
Experimental: Lipopolysaccharide-Activated THP1 Cell TNF Production Assay
THP1 cells are resuspended in fresh THP1 media (RPMI 1640, 10% heat-inactivated FBS, 1×PGS, 1×NEAA, plus 30 μM βME) at a concentration of 1E6/mL. One hundred microliters of cells per well are plated in a polystyrene 96-well tissue culture. One microgram per mL of bacterial LPS is prepared in THP1 media and is transferred to the wells. Test compounds are dissolved in 100% DMSO and are serially diluted 3 fold in a polypropylene 96-well microtiter plate (drug plate). HI control and LO control wells contain only DMSO. One microliter of test compound from the drug plate followed by 10 μL of LPS are transferred to the cell plate. The treated cells are induced to synthesize and secrete TNF-α at 37° C. for 3 h. Forty microliters of conditioned media are transferred to a 96-well polypropylene plate containing 110 μL of ECL buffer (50 mM Tris-HCl pH 8.0, 100 mM NaCl, 0.05% Tween 20, 0.05% NaN3 and 1% FBS) supplemented with 0.44 nM MAB610 monoclonal Ab (R&D Systems), 0.34 nM ruthenylated AF210NA polyclonal Ab (R&D Systems) and 44 μg/mL sheep anti-mouse M280 Dynabeads (Dynal). After a 2 h incubation at RT with shaking, the reaction is read on the ECL M8 Instrument (IGEN Inc.). A low voltage is applied to the ruthenylated TNF-α immune complexes, which in the presence of TPA (the active component in Origlo), results in a cyclical redox reaction generating light at […]. The amount of secreted TNF-α in the presence of compound compared with that in the presence of DMSO vehicle alone (HI control) is calculated using the formula: % control (POC)=(cpd−average LO)/(average HI−average LO)*100. Data (consisting of POC and inhibitor concentration in μM) is fitted to a 4-parameter equation (y=A+((B−A)/(1+((×/C)ôD))), where A is the minimum y (POC) value, B is the maximum y (POC), C is the x (cpd concentration) at the point of inflection and D is the slope factor) using a Levenburg-Marquardt non-linear regression algorithm.

Compound `CN(c1nc(NCCc2cccnc2)ncc1F)c1nc(-c2ccccc2)ncc1F` [Example 69, 5-Fluoro-N^4-(5-fluoro-2-phenylpyrimidin-4-yl)-N^4-methyl-N^2-(2-(pyridin-3-yl)-ethyl)pyrimidine-2,4-diamine] has an IC50 of at most 20 µM.
`CN(c1ccnc(NC2CCNCC2)n1)c1ccnc(-c2ccccc2)n1` [Example 16, N^4-Methyl-N^4-(2-phenylpyrimidin-4-yl)-N^2-(piperidin-4-yl)pyrimidine-2,4-diamine] was tested, and the IC50 was at most 20 µM.
In the case of `CN(c1ccnc(NCCN2CCOCC2)n1)c1ccnc(-c2ccccc2)n1` [Example 96, N^4-Methyl-N^2-(2-morpholinoethyl)-N^4-(2-phenylpyrimidin-4-yl)pyrimidine-2,4-diamine], the IC50 is reported as at most 20 µM.
`CN(c1ccnc(N[C@@H](CCO)Cc2ccccc2)n1)c1ccnc(-c2ccccc2)n1` [(3R)-3-((4-(methyl(2-phenyl-4-pyrimidinyl)amino)-2-pyrimidinyl)amino)-4-phenyl-1-butanol] showed an IC50 of at most 20 µM.
`CN(c1cccc(-c2ccccc2Cl)n1)c1ccnc(NCCc2ccccc2)n1` [Example 136, N^4-(6-(2-Chlorophenyl)pyridin-2-yl)-N^4-methyl-N^2-phenethylpyrimidine-2,4-diamine] was tested, and the IC50 was at most 20 µM.
`CN(c1ccnc(NCC(O)c2ccccn2)n1)c1ccnc(-c2ccccc2)n1` (stereo not shown) [Example 113] was tested, and the IC50 was at most 20 µM.
With `CN(c1ccnc(NCCc2ccc3c(n2)NCCC3)n1)c1ccnc(-c2ccccc2)n1` [Example 114, N^4-Methyl-N^4-(2-phenylpyrimidin-4-yl)-N^2-(2-(5,6,7,8-tetrahydro-1,8-naphthyridin-2-yl)ethyl)pyrimidine-2,4-diamine] the IC50 was at most 20 µM.
Work on `CN(c1ccnc(NCCc2cccnc2)n1)c1ccnc(-c2cc(F)ccc2F)n1` [Example 78, N^4-(2-(2,5-Difluorophenyl)pyrimidin-4-yl)-N^4-methyl-N^2-(2-(pyridin-3-yl)ethyl)-pyrimidine-2,4-diamine] yielded an IC50 of at most 20 µM.
In the case of `CN(c1ccnc(NCCc2ccccc2Cl)n1)c1nccc(C(C)(C)C)n1` [Example 55, N^2-(2-Chlorophenethyl)-N^4-(4-tert-butylpyrimidin-2-yl)-N^4-methylpyrimidine-2,4-diamine], the IC50 is reported as at most 20 µM.
Compound `Cc1cc(N(C)c2ccnc(-c3ccccc3)n2)nc(N[C@@H](C)Cc2cccc([C@@H](C)N)c2)n1` [Example 36, N^2-((S)-1-(3-((R)-1-Aminoethyl)phenyl)propan-2-yl)-N^4,6-dimethyl-N^4-(2-phenylpyrimidin-4-yl)pyrimidine-2,4-diamine] has an IC50 of at most 20 µM.
Compound `CN(c1cccc(C2=CCCCC2)n1)c1ccnc(NCCc2ccccc2)n1` [Example 148, N^4-(6-cyclohexenylpyridin-2-yl)-N^4-methyl-N^2-phenethylpyrimidine-2,4-diamine] has an IC50 of at most 20 µM.
Compound `CNC(=O)[C@@H](Cc1ccccc1)Nc1nccc(N(C)c2ccnc(-c3ccccc3)n2)n1` [Example 46, (R)-N-Methyl-2-(4-(methyl(2-phenylpyrimidin-4-yl)amino)pyrimidin-2-ylamino)-3-phenylpropanamide] has an IC50 of at most 20 µM.
Compound `Cc1ccccc1-c1nccc(N(C)c2ccnc(NCCc3cccnc3)n2)n1` [Example 105, N^4-Methyl-N^2-(2-(pyridin-3-yl)ethyl)-N^4-(2-o-tolylpyrimidin-4-yl)pyrimidine-2,4-diamine] has an IC50 of at most 20 µM.
In the case of `CN(c1ccnc(NC(C)(C)CNC(=O)OC(C)(C)C)n1)c1cc(-c2ccccc2)cc(=O)n1C` [Example 161, tert-Butyl 2-methyl-2-(4-(methyl(1-methyl-6-oxo-4-phenyl-1,6-dihydropyridin-2-yl)amino)pyrimidin-2-ylamino)propylcarbamate], the IC50 is reported as at most 20 µM.
`C[C@H](Nc1nccc(N(C)c2ccnc(-c3ccccc3)n2)n1)c1ccc(CCN)cc1` [Example 3, (S)-N^2-(1-(4-(2-Aminoethyl)phenyl)ethyl)-N^4-methyl-N^4-(2-phenylpyrimidin-4-yl)pyrimidine-2,4-diamine] was tested, and the IC50 was at most 20 µM.
`C[C@H](N)c1cccc(CCNc2nccc(N(C)c3ccnc(-c4ccccc4)n3)n2)c1` [Example 21, (S)-N^2-(3-(1-Aminoethyl)phenethyl)-N^4-methyl-N^4-(2-phenylpyrimidin-4-yl)-pyrimidine-2,4-diamine] gave an IC50 of at most 20 µM.
`CC(C)[C@H](CCN1CCOCC1)Nc1nccc(N(C)c2ccnc(-c3ccccc3)n2)n1` [Example 62, (S)-N^4-Methyl-N^2-(4-methyl-1-morpholinopentan-3-yl)-N^4-(2-phenylpyrimidin-4-yl)pyrimidine-2,4-diamine] gave an IC50 of at most 20 µM.
`CC(C)NCC[C@@H](Cc1ccccc1)Nc1nccc(N(C)c2ccnc(-c3ccccc3)n2)n1` [Example 58, (R)-N^2-(4-(Isopropylamino)-1-phenylbutan-2-yl)-N^4-methyl-N^4-(2-phenylpyrimidin-4-yl)pyrimidine-2,4-diamine] gave an IC50 of at most 20 µM.
`CN(c1ccnc(NC2CCN(C(=O)OC(C)(C)C)CC2)n1)c1cc(-c2ccccc2)cc(=O)n1C` [Example 162, tert-Butyl 4-(4-(methyl(1-2-yl)amino)pyrimidin-2-ylamino)piperidine-1-carboxylate] gave an IC50 of at most 20 µM.
Compound `CN(c1ccnc(N[C@H](Cc2ccccc2)C(=O)O)n1)c1ccnc(-c2ccccc2)n1` [Example 45, (R)-2-(4-(Methyl(2-phenylpyrimidin-4-yl)amino)pyrimidin-2-ylamino)-3-phenyl-propanoic acid] has an IC50 of at most 20 µM.
With `CN(c1ccnc(N[C@H](Cc2ccccc2)CN2CCOCC2)n1)c1ccnc(-c2ccccc2)n1` [Example 53, (R)-N^4-methyl-N^2-(3-morpholino-1-phenylpropan-2-yl)-N^4-(2-phenylpyrimidin-4-yl)pyrimidine-2,4-diamine] the IC50 was at most 20 µM.
`CN(c1cccc(-c2ccco2)n1)c1ccnc(NCCc2ccccc2)n1` [Example 149, N^4-(6-(Furan-2-yl)pyridin-2-yl)-N^4-methyl-N^2-phenethylpyrimidine-2,4-diamine] gave an IC50 of at most 20 µM.
`CN(c1cccc(-c2ccccc2C(F)(F)F)n1)c1ccnc(NCCc2ccccc2)n1` [Example 130, N^4-Methyl-N^2-phenethyl-N^4-(6-(2-(trifluoromethyl)phenyl)pyridin-2-yl)-pyrimidine-2,4-diamine] gave an IC50 of at most 20 µM.
Compound `CC(Cc1cccc(CO)c1)Nc1nccc(N(C)c2cccc(-c3cccc(F)c3)n2)n1` (stereo not shown) [Example 156, (3-(2-(4-((6-(3-Fluorophenyl)pyridin-2-yl)(methyl)amino)pyrimidin-2-ylamino)propyl)phenyl)methanol] has an IC50 of at most 20 µM.
In the case of `C[C@@H](Cc1cccc(CN)c1)Nc1nccc(N(C)c2nc(N)cc(-c3ccccc3)n2)n1` [Example 8, (S)-N^4-(4-Amino-6-phenylpyrimidin-2-yl)-N^2-(1-(3-(aminomethyl)phenyl)propan-2-yl)-N^4-methylpyrimidine-2,4-diamine], the IC50 is reported as at most 20 µM.
Compound `CC(=O)N1CCC(CNc2nccc(N(C)c3ccnc(-c4ccccc4)n3)n2)CC1` [Example 115, 1-(4-((4-(Methyl(2-phenylpyrimidin-4-yl)amino)pyrimidin-2-ylamino)methyl)-piperidin-1-yl)ethanone] has an IC50 of at most 20 µM.
`C[C@@H](Cc1cccc([C@@H](C)N)c1)Nc1nccc(N(C)c2cc(-c3ccccc3)c(=O)n(C)c2)n1` [Example 179, 5-((2-((S)-1-(3-((R)-1-Aminoethyl)phenyl)propan-2-ylamino)pyrimidin-4-yl)(methyl)amino)-1-methyl-3-phenylpyridin-2(1H)-one] was tested, and the IC50 was at most 20 µM.
For `C[C@@H](Cc1cccc(CN)c1)Nc1nccc(N(C)c2ccnc(-c3ccc(F)cc3)n2)n1` [Example 87, (S)-N^2-(1-(3-(Aminomethyl)phenyl)propan-2-yl)-N^4-(2-(4-fluorophenyl)pyrimidin-4-yl)-N^4-methylpyrimidine-2,4-diamine], the IC50 was at most 20 µM.
Compound `Cc1cc(N(C)c2ccnc(-c3ccccc3)n2)nc(N[C@@H](C)Cc2cccc(CNC(=O)[C@H](C)N)c2)n1` [Example 35, (S)-N-((S)-3-((S)-2-(4-Methyl-6-(methyl(2-phenylpyrimidin-4-yl)amino)pyrimidin-2-ylamino)propyl)benzyl)-2-aminopropanamide] has an IC50 of at most 20 µM.
`CC(Cc1cccc(CN)c1)Nc1nccc(N(C)c2cccc(-c3cccc(F)c3)n2)n1` (stereo not shown) [Example 157, N^2-(1-(3-(Aminomethyl)phenyl)propan-2-yl)-N^4-(6-(3-fluorophenyl)pyridin-2-yl)-N^4-methylpyrimidine-2,4-diamine] was tested, and the IC50 was at most 20 µM.
`CN(c1ccnc(N[C@@H](CNC(=O)CN)Cc2ccccc2)n1)c1ccnc(-c2ccccc2)n1` [Example 52, (R)-2-Amino-N-(2-(4-(methyl(2-phenylpyrimidin-4-yl)amino)pyrimidin-2-ylamino)-3-phenylpropyl)acetamide] was tested, and the IC50 was at most 20 µM.
